{"source": "patent US20110028498A1", "about": "“METHOD FOR EVALUATING PATIENTS FOR TREATMENT WITH DRUGS TARGETING RET RECEPTOR TYROSINE KINASE” (priority 2006, published 2011)", "origin": "cited, not measured here", "system": "RET-dependent thyroid tumour cell growth", "conditions": "in vitro, literature"}
{"molecule": "COc1cc2c(Nc3ccc(Br)cc3F)ncnc2cc1OCC1CCN(C)CC1", "note": "[vandetanib, 4-(4-bromo-2-fluoroanilino)-6-methoxy-7-(1-methylpiperidin-4-ylmethoxy)quinazoline]", "values": [{"measurement": "growth-inhibitory effect on RET-dependent thyroid tumour cell growth", "value": "strong growth-inhibitory effect"}]}
